According to ChEMBL document CHEMBL4800727 (2021):

Experiments:
Conditions in all cases: Compound concentration 10.0 uM
[1] = molecular target: D(4) dopamine receptor (Homo sapiens) (UniProt P21917)
[2] = molecular target: T1, 5-hydroxytryptamine receptor 3A (Homo sapiens) (UniProt P46098)
T1 sequence (whole entry): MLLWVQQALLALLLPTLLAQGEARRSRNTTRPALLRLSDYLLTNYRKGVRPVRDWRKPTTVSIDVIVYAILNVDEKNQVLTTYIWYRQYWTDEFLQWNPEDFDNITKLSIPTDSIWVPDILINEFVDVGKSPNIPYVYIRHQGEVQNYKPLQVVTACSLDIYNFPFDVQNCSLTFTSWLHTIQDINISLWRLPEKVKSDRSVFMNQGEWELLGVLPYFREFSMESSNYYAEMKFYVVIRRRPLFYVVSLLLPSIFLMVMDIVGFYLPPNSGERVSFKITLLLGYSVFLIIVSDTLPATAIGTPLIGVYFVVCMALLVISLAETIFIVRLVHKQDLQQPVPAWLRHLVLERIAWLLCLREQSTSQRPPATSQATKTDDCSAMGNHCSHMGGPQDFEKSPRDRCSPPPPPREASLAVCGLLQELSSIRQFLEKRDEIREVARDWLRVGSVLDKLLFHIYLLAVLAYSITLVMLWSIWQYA

[3] = molecular target: 5-hydroxytryptamine receptor 6 (Homo sapiens) (UniProt P50406)
[4] = molecular target: Sodium-dependent noradrenaline transporter (Homo sapiens) (UniProt P23975)
[5] = molecular target: Delta-type opioid receptor (Homo sapiens) (UniProt P41143)
[6] = molecular target: T2, Muscarinic acetylcholine receptor M2 (Homo sapiens) (UniProt P08172)
T2 sequence (whole entry): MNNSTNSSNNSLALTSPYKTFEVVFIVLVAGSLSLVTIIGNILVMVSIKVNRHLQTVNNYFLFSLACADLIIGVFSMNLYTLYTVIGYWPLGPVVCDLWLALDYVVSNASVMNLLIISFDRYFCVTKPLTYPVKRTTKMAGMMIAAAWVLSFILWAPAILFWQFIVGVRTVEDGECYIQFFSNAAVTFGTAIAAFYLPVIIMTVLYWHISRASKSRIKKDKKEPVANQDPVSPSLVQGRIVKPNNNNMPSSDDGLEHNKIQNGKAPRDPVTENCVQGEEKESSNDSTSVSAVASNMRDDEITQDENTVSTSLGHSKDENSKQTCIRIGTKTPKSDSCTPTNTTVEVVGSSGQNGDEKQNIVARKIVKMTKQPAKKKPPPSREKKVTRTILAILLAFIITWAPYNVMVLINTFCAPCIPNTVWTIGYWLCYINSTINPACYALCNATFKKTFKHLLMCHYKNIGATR

[7] = molecular target: T3, 5-hydroxytryptamine receptor 1A (Homo sapiens) (UniProt P08908)
T3 sequence (whole entry): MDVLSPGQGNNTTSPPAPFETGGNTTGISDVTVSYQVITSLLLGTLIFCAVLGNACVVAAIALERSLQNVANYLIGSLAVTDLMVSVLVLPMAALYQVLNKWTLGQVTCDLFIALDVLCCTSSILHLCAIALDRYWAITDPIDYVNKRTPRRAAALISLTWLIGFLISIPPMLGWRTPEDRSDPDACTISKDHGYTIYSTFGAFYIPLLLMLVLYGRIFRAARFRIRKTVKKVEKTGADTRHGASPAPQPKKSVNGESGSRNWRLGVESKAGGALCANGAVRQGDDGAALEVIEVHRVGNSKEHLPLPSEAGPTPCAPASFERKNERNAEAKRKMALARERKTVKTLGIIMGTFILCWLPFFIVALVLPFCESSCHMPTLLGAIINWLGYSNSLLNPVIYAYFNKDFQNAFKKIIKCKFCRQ

[8] = molecular target: D(3) dopamine receptor (Homo sapiens) (UniProt P35462)
[9] = molecular target: 5-hydroxytryptamine receptor 1B (Homo sapiens) (UniProt P28222)
[10] = molecular target: T4, 5-hydroxytryptamine receptor 2C (Homo sapiens) (UniProt P28335)
T4 sequence (whole entry): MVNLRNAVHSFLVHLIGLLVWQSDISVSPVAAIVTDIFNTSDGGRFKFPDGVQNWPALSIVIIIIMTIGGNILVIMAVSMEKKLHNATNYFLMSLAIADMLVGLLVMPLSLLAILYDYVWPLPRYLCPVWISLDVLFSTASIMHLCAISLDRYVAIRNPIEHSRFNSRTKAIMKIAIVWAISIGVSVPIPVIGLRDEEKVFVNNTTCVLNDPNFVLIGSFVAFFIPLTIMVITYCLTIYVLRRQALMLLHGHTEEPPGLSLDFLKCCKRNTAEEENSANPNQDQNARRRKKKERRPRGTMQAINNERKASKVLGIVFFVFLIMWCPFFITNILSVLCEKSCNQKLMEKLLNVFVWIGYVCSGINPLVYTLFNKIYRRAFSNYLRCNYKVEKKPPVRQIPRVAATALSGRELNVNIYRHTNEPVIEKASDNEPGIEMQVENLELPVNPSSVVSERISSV

[11] = molecular target: Beta-1 adrenergic receptor (Homo sapiens) (UniProt P08588)
[12] = molecular target: GABA-A receptor; anion channel (Rattus norvegicus) (UniProt O09028+P15431+P18506+P18508+P19969+P20236+P23574+P23576+P28471+P28473+P30191+P62813+P63079+P63138+Q91ZM7+Q9ES14)
[13] = molecular target: Alpha-1A adrenergic receptor (Homo sapiens) (UniProt P35348)
[14] = molecular target: 5-hydroxytryptamine receptor 2B (Homo sapiens, UniProt P41595)
[15] = molecular target: Alpha-1D adrenergic receptor (Homo sapiens) (UniProt P25100)
[16] = molecular target: Histamine H1 receptor (Homo sapiens) (UniProt P35367)
[17] = molecular target: MAP kinase-activated protein kinase 3 (Homo sapiens) (UniProt Q16644); assay: mitogen-activated protein kinase-activated protein kinase 3 Millipore kinase panel
[18] = molecular target: Serine/threonine-protein kinase mTOR (Homo sapiens) (UniProt P42345); assay: mechanistic target of rapamycin Millipore kinase panel
[19] = molecular target: Mitogen-activated protein kinase kinase kinase kinase 1 (Homo sapiens) (UniProt Q92918); assay: mitogen-activated protein kinase kinase kinase kinase 1 Millipore kinase panel
[20] = molecular target: Serine/threonine-protein kinase D1 (Homo sapiens) (UniProt Q15139); assay: protein kinase D1 Millipore kinase panel

5-hydroxytryptamine receptor 1B (Homo sapiens), sequence (P28222 whole entry): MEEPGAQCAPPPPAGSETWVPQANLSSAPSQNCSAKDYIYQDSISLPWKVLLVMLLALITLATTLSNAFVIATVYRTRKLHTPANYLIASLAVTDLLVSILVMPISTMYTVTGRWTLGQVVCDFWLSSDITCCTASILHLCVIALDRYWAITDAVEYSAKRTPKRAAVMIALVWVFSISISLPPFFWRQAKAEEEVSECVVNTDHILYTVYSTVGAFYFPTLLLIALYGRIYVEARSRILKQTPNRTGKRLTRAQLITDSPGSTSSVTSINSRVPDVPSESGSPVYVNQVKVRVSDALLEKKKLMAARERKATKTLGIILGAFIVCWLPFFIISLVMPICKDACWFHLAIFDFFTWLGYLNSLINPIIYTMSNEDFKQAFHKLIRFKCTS
D(4) dopamine receptor (Homo sapiens), sequence (P21917 whole entry): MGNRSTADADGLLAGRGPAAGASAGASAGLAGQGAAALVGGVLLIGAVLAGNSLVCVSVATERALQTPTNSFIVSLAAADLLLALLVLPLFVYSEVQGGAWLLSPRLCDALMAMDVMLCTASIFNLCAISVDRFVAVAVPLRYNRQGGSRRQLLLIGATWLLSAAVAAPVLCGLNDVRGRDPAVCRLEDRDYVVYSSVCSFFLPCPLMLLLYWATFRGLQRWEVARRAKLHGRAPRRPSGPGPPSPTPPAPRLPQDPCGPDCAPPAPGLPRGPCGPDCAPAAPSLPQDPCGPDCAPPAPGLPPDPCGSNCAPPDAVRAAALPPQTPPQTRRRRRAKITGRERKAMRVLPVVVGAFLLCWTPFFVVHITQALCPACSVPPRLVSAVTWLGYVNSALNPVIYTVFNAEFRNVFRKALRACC
5-hydroxytryptamine receptor 2B, sequence (P41595 whole entry): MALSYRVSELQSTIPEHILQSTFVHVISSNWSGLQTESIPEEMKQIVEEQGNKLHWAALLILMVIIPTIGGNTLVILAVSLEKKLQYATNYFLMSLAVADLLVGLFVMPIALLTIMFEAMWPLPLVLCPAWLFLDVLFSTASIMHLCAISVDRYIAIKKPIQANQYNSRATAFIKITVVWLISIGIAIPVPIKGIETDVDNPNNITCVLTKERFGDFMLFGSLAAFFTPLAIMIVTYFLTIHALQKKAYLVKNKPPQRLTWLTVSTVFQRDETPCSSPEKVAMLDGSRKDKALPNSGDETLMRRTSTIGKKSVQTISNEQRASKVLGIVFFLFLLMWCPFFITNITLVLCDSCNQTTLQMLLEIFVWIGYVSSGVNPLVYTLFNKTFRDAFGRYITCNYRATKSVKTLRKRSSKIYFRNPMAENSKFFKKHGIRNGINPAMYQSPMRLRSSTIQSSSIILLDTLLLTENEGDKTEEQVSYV
D(3) dopamine receptor (Homo sapiens), sequence (P35462 whole entry): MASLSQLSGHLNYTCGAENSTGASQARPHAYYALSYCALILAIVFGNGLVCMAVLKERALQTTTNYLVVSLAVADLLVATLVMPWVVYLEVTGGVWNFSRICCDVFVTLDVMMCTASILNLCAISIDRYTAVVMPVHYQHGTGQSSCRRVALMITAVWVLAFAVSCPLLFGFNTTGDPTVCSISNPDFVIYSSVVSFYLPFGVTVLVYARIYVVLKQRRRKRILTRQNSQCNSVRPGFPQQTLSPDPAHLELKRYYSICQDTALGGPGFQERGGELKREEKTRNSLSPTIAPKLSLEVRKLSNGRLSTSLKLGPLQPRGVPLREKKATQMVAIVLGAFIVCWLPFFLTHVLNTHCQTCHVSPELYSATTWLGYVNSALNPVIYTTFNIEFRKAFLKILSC
Alpha-1D adrenergic receptor (Homo sapiens), sequence (P25100 whole entry): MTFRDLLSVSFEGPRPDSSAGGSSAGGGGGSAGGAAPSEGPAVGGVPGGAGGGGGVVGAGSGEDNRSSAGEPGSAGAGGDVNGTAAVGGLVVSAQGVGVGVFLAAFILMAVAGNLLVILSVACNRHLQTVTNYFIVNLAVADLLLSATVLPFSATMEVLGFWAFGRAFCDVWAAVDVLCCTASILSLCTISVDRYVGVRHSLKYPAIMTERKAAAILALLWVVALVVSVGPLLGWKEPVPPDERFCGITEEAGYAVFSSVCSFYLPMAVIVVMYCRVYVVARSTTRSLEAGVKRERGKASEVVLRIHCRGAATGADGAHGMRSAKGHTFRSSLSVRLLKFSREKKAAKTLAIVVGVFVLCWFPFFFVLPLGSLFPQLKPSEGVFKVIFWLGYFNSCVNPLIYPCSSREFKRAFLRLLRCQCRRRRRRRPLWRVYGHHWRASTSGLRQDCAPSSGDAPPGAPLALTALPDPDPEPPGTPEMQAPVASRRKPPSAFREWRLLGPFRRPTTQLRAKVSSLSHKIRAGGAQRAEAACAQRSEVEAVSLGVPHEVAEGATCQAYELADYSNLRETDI
5-hydroxytryptamine receptor 6 (Homo sapiens), sequence (P50406 whole entry): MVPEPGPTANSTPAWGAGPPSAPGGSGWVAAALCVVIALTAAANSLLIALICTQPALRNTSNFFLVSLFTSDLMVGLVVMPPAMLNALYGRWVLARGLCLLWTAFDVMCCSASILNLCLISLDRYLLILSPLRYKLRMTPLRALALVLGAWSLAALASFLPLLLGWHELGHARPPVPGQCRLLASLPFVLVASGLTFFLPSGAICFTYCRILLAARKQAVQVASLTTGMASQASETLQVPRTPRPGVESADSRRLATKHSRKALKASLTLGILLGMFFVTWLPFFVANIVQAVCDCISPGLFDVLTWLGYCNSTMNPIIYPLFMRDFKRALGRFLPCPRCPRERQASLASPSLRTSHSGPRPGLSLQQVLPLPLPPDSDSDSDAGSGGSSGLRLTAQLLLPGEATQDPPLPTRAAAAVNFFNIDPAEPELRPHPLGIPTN
Histamine H1 receptor (Homo sapiens), sequence (P35367 whole entry): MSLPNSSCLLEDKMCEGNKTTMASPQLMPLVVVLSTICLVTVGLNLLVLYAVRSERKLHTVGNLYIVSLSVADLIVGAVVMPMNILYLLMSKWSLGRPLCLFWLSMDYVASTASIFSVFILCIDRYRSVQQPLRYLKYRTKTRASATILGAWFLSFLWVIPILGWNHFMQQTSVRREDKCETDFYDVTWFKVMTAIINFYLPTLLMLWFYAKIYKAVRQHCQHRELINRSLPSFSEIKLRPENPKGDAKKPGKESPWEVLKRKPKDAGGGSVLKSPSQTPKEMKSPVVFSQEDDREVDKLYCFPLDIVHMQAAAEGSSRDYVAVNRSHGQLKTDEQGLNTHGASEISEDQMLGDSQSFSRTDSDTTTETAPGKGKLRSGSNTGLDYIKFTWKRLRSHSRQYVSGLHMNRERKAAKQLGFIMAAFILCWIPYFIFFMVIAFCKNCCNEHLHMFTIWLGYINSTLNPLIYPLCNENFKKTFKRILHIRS
Delta-type opioid receptor (Homo sapiens), sequence (P41143 whole entry): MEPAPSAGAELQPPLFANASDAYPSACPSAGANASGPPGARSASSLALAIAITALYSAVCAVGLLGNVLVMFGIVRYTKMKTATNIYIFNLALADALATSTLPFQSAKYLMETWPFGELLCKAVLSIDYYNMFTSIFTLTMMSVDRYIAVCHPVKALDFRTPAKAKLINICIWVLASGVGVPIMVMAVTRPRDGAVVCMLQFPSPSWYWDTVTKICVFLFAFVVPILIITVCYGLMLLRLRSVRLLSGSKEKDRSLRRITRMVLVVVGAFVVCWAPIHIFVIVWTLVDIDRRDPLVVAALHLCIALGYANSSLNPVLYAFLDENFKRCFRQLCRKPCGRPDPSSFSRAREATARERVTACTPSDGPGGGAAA
Sodium-dependent noradrenaline transporter (Homo sapiens), sequence (P23975 whole entry): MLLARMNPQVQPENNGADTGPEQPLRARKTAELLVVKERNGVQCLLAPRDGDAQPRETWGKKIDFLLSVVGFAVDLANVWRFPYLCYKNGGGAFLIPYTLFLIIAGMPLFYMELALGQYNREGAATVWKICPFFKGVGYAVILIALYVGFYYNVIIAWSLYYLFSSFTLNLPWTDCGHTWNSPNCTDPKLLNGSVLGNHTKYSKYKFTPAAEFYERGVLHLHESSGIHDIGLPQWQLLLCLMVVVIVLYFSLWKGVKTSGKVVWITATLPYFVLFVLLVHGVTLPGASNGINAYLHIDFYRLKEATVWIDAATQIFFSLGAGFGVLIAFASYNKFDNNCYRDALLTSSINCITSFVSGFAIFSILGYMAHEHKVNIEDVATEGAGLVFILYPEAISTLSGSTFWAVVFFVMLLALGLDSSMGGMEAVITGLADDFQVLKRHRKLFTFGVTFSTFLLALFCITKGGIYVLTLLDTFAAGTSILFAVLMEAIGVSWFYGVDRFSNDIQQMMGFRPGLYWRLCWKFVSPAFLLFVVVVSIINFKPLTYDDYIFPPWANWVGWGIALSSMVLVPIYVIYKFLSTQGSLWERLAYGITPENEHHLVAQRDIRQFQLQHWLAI
Alpha-1A adrenergic receptor (Homo sapiens), sequence (P35348 whole entry): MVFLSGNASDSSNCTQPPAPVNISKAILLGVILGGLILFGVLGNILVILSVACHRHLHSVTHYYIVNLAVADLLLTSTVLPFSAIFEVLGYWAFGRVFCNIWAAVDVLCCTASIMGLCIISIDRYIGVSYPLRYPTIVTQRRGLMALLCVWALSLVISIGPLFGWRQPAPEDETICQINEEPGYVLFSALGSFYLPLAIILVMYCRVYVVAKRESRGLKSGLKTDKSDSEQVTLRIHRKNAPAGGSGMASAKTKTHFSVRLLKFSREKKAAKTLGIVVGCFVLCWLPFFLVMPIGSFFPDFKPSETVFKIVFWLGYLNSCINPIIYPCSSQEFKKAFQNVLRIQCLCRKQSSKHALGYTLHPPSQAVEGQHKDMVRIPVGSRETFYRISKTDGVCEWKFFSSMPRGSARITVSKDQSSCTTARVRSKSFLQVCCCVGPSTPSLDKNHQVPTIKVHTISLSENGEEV

Row | SMILES | inhibition [1] [%] | inhibition [2] [%] | inhibition [3] [%] | inhibition [4] [%] | inhibition [5] [%] | inhibition [6] [%] | inhibition [7] [%] | inhibition [8] [%] | inhibition [9] [%] | inhibition [10] [%] | inhibition [11] [%] | inhibition [12] [%] | inhibition [13] [%] | inhibition [14] [%] | inhibition [15] [%] | inhibition [16] [%] | inhibition [17] [%] | inhibition [18] [%] | inhibition [19] [%] | inhibition [20] [%]
1 | c1ccc(C2CCN(c3cnc4c(N5CCOCC5)nccn34)CC2)cc1 | 0.44 | 9.38 | -7.87 | 17.4 | 2.73 | 9.44 | 25.7 | -6.13 | 8.68 | 5.92 | 23.5 | 22.2 | 22.5 | 17.7 | 10.7 | 11.2 | – | – | – | –
2 | COCCc1ccc(-c2c(C)nc3c(N4CCOCC4)ccnn23)cn1 [JNJ-42396302] | -3.39 | 4.69 | 18.5 | 16 | 7.84 | 10.4 | 22.9 | 24.1 | -0.76 | 68.2 | 3.43 | 34 | 23 | 52.2 | 15.3 | 24.6 | 3 | 1 | 5.53 | -5
